Laboratory results taken from patent publication US20120035247A1, “RNA Interference Mediated Inhibition of Signal Transducer and Activator of Transcription 6 (STAT6) Gene Expression Using Short Interfering Nucleic Acid (siNA)” (Merck Sharp & Dohme Corp., priority 2009, published 2012).
[invAb] = inverted abasic unit; m = 2'-O-methyl; r = 2'-OH (RNA); f = 2'-fluoro

Legend:
STAT6 mRNA [1] = test: STAT6 siNA screen and dose response in human A549 cells, STAT6 mRNA by quantitative RT-PCR (Taqman); format: cell-based; settings: human A549 cells, 10 nM siNA, 24 hrs, normalized to GAPDH and non-targeting control, mean ± S.D., n = 3
Procedure: A549 (human; ATCC cat# CCL-185): Cells were cultured at 37° C. in the presence of 5% CO2 and grown in Ham's F12K medium with 2 mM L-glutamine adjusted to contain 1.5 g/L sodium bicarbonate and supplemented with fetal bovine serum at a final concentration of 10%, 100 μg/mL of streptomycin, and 100 U/mL penicillin.
(§1) Cells were plated in all wells of a tissue-culture treated, 96-well plate at a final count of 5000 cells/well in […], of the appropriate culture media. The cells were cultured for 24 hours after plating at 37° C. in the presence of 5% CO2.
(§2) After 24 hours, complexes containing siNA and RNAiMax were created as follows: A solution of RNAiMax diluted 33-fold in OPTI-MEM was prepared. In parallel, solutions of the siNAs for testing were prepared to a final concentration of 120 nM in OPTI-MEM. After incubation of RNAiMax/OPTI-MEM solution at room temperature for 5 min, an equal volume of the siNA solution and the RNAiMax solution were added together for each of the siNAs.
(§3) This solution was incubated at room temperature for 20 minutes. After incubation, 20 uL of the solution was added to each of the relevant wells. The final concentration of siNA in each well was 10 nM and the final volume of RNAiMax in each well was 0.3u1.
(§4) The time of incubation with the RNAiMax-siNA complexes was 24 hours and there was no change in media between transfection and harvesting, unless otherwise indicated.
(§5) RNA was extracted from a 96-well plate using the TaqMan® Gene Expression Cells-to-CT™ Kit (Cat#4399002) with a modified protocol. Briefly, a 60 uL (1 plate) or 110 uL (2 plates) of the Lysis Solution with DNase I was dispensed into each well of the Lysis Buffer Plate (twin.tec full skirt plate). The lysis buffer and stop plates were stored at 4° C. until the cells were washed.
(§6) The plate was spun at 1100 rpm for 5 minutes. The culture medium was aspirated and discarded from the wells of the culture plate. The lysis was performed automatically using a BioMek FX instrument and method. After the Biomek method was completed, the lysis plate was incubated for 2 min. at room temperature. The lysis plate can be stored for 2 hours at 4° C., or at −20° C. or −80° C. for two months.
(§7) Each well of the reverse transcription plate required 10 uL of 2× reverse transcriptase Buffer, luL of 20× reverse transcription enzyme and 2 uL of nuclease-free water. The reverse transcription master mix was prepared by mixing 2× reverse transcription buffer, 20× reverse transcription enzyme mix, and nuclease-free water. 13 uL of the reverse transcription master mix was dispensed into each well of the reverse transcription plate (semi-skirted). A separate reverse transcription plate was prepared for each cell plate. The plate was loaded onto a Biomek NX or Biomek FX Dual-96 and the Biomek method was run. The program is programmed to automatically added 7 uL of lysate from the cell lysis procedure described above into each well of the reverse transcription plate. The plate is sealed and spun on a centrifuge (1000 rpm for 30 seconds) to settle the contents to the bottom of the reverse transcription plate. The plate is placed in a thermocycler at 37° C. for 60 min, 95° C. for 5 min, and 4° C. until the plate is removed from the thermocycler. Upon removal, if not used immediately, the plate was frozen at −20° C.
(§8) A series of probes and primers were used to detect the various mRNA transcripts of the genes of 13-Actin (human cell line only), and of STATE and GAPDH in mouse and human cell lines. All Taqman probes and primers for the experiments here-in described were supplied as pre-validated sets by Applied Biosystems, Inc. (see Table 2).
The assays were performed on an ABI 7900 instrument, according to the manufacturer's instructions. A TaqMan Gene Expression Master Mix (provided in the Cells-to-CTT™, Applied Biosystems, Cat #4399002) was used. The PCR reactions were carried out at 50° C. for 2 min, 95° C. for 20 min followed by 40 cycles at 95° C. for 15 secs and 60° C. for 1 min. […]

STAT6 mRNA [2] = test: STAT6 siNA screen in mouse NIH 3T3 cells, STAT6 mRNA by quantitative RT-PCR (Taqman); format: cell-based; settings: mouse NIH3T3 cells, 10 nM siNA, 24 hrs, normalized to GAPDH and non-targeting control, n = 2
Procedure: NIH 3T3 (mouse; ATCC cat# CRL-1658): Cells were cultured at 37° C. in the presence of 5% CO2 and grown in Dulbecco's modified Eagle's medium (DMEM) with 4 mM L-glutamine adjusted to contain 1.5 g/L sodium bicarbonate and 4.5 g/L glucose and supplemented with fetal bovine serum at a final concentration of 10%, 100 μg/mL of streptomycin, and 100 U/mL penicillin.
as §1, §2, §3, §4, §5, §6, §7, §8
The assays were performed on an ABI 7900 instrument, according to the manufacturer's instructions. A TaqMan Gene Expression Master Mix (provided in the Cells-to-CTT™, Applied Biosystems, Cat #4399002) was used. […]

| Substance | % KD STAT6 (STAT6 mRNA [1]) [%] | % KD STAT6 (STAT6 mRNA [2]) [%] |
| --- | --- | --- |
| 30014-DC: STAT6 siNA duplex; sense SEQ ID NO: 92, antisense SEQ ID NO: 93; target GGCCUUUCAGCACCGCUGU, site 1755 (sense GGCCUUUCAGCACCGCUGUTT; antisense ACAGCGGUGCUGAAAGGCCUU; sense: DNA at AGT, 2'-fluoro at CU, [invAb] at 5' end, 3' end, backbone not given here; antisense: sugars from the 5' end rrrmfmmfmffmmmmmmffmm, backbone not given here) [STAT6 siNA duplex; target GGCCUUU…UGU, site 1755] | −0.4 ± 17.4 | 30.6 ± 2.8 |
| 30015-DC: STAT6 siNA duplex; sense SEQ ID NO: 94, antisense SEQ ID NO: 95; target CUCAGAUGUGACUAUGGUA, site 2544 (sense CUCAGAUGUGACUAUGGUATT; antisense UACCAUAGUCACAUCUGAGUU; sense: DNA at AGT, 2'-fluoro at CU, [invAb] at 5' end, 3' end, backbone not given here; antisense: sugars from the 5' end rrrfmfmmffmfmfffmmmmm, backbone not given here) [STAT6 siNA duplex; target CUCAGAUGUGACUAUGGUA, site 2544] | 65.5 ± 7.6 | 81.6 ± 3.7 |
| 30016-DC: STAT6 siNA duplex; sense SEQ ID NO: 96, antisense SEQ ID NO: 97; target GCCAGAUAACCAUGCCCUU, site 2447 (sense GCCAGAUAACCAUGCCCUUTT; antisense AAGGGCAUGGUUAUCUGGCUU; sense: DNA at AGT, 2'-fluoro at CU, [invAb] at 5' end, 3' end, backbone not given here; antisense: sugars from the 5' end rrrmmfmfmmffmfffmmfmm, backbone not given here) [STAT6 siNA duplex; target GCCAGAUAACCAUGCCCUU, site 2447] | −20 ± 8.9 | 61.8 ± 2.3 |
| 30017-DC: STAT6 siNA duplex; sense SEQ ID NO: 98, antisense SEQ ID NO: 99; target GAUGCUUUCUGUUACAACA, site 421 (sense GAUGCUUUCUGUUACAACATT; antisense UGUUGUAACAGAAAGCAUCUU; sense: DNA at AGT, 2'-fluoro at CU, [invAb] at 5' end, 3' end, backbone not given here; antisense: sugars from the 5' end rrrfmfmmfmmmmmmfmffmm, backbone not given here) [STAT6 siNA duplex; target GAUGCUUUCUGUUACAACA, site 421] | −14.9 ± 9.1 | 85.1 ± 2 |
| 30018-DC: STAT6 siNA duplex; sense SEQ ID NO: 100, antisense SEQ ID NO: 101; target CAGAAGAUCUUCAACGACA, site 1720 (sense CAGAAGAUCUUCAACGACATT; antisense UGUCGUUGAAGAUCUUCUGUU; sense: DNA at AGT, 2'-fluoro at CU, [invAb] at 5' end, 3' end, backbone not given here; antisense: sugars from the 5' end rrrfmffmmmmmffffffmmm, backbone not given here) [STAT6 siNA duplex; target CAGAAGAUCUUCAACGACA, site 1720] | 66.8 ± 3.2 | 64.8 ± 0.7 |
| 30019-DC: STAT6 siNA duplex; sense SEQ ID NO: 102, antisense SEQ ID NO: 103; target GAAACAGCAUCUUGCCGCA, site 506 (sense GAAACAGCAUCUUGCCGCATT; antisense UGCGGCAAGAUGCUGUUUCUU; sense: DNA at AGT, 2'-fluoro at CU, [invAb] at 5' end, 3' end, backbone not given here; antisense: sugars from the 5' end rrrmmfmmmmfmffmffffmm, backbone not given here) [STAT6 siNA duplex; target …UCUUGCCGCA, site 506] | −9.5 ± 20.6 | 59.6 ± 7.3 |
| 30020-DC: STAT6 siNA duplex; sense SEQ ID NO: 104, antisense SEQ ID NO: 105; target CUAGCCUUCUCCUCAAUGA, site 1928 (sense CUAGCCUUCUCCUCAAUGATT; antisense UCAUUGAGGAGAAGGCUAGUU; sense: DNA at AGT, 2'-fluoro at CU, [invAb] at 5' end, 3' end, backbone not given here; antisense: sugars from the 5' end r3 f2 m10 f2 m4, backbone not given here) [STAT6 siNA duplex; target CUAGCCUUCUCCUCAAUGA, site 1928] | 58.8 ± 13.6 | 64.2 ± 7.9 |
| 30021-DC: STAT6 siNA duplex; sense SEQ ID NO: 106, antisense SEQ ID NO: 107; target GUCAAUGGUCCUGGUCCAA, site 793 (sense GUCAAUGGUCCUGGUCCAATT; antisense UUGGACCAGGACCAUUGACUU; sense: DNA at AGT, 2'-fluoro at CU, [invAb] at 5' end, 3' end, backbone not given here; antisense: sugars from the 5' end rrrmmffmmmmffmffmmfmm, backbone not given here) [STAT6 siNA duplex; target GUCAAUGGUCCUGGUCCAA, site 793] | 17.2 ± 7.5 | −7 ± 7.2 |
| 30022-DC: STAT6 siNA duplex; sense SEQ ID NO: 108, antisense SEQ ID NO: 109; target CCAAGACCCGGGCAUCGCU, site 1037 (sense CCAAGACCCGGGCAUCGCUTT; antisense AGCGAUGCCCGGGUCUUGGUU; sense: DNA at AGT, 2'-fluoro at CU, [invAb] at 5' end, 3' end, backbone not given here; antisense: chemistry not given here; in the key) [STAT6 siNA duplex; target …UCGCU, site 1037] | 56.1 ± 8.3 | 51.5 ± 0 |
| 30023-DC: STAT6 siNA duplex; sense SEQ ID NO: 110, antisense SEQ ID NO: 111; target CACCUUAUGAUCUUGGAAU, site 2288 (sense CACCUUAUGAUCUUGGAAUTT; antisense AUUCCAAGAUCAUAAGGUGUU; sense: DNA at AGT, 2'-fluoro at CU, [invAb] at 5' end, 3' end, backbone not given here; antisense: sugars from the 5' end rrrffmmmmffmfmmmmfmmm, backbone not given here) [STAT6 siNA duplex; target CACCUUAUGAUCUUGGAAU, site 2288] | 15.3 ± 05.4 | −0.8 ± 3.8 |
